Measurements as given in patent US20250025427A1, “MIXED AMIDE ESTER CONTAINING LIPIDS FOR USE IN LIPID NANOPARTICLES” (Acuitas Therapeutics, Inc., priority 2023, published 2025).

What follows are molecules tested on human IgG in mouse serum (assay: Immunoglobulin G (IgG) mRNA in vivo evaluation using lipid nanoparticle compositions). Details: LNP with the cationic lipid, 0.3 mg mRNA/kg, tail vein injection, μg IgG/mL serum 24 hours after administration.
Design: species or system mice
Description: A lipid of Formula (I), DSPC, cholesterol and PEG-lipid of Formula (II) are solubilized in ethanol at a molar ratio of 50:10:38.5:1.5 or 47.5:10:40.7:1.8. Lipid nanoparticles (LNP) are prepared at a total lipid to mRNA weight ratio of approximately 10:1 to 40:1. Briefly, the mRNA is diluted to 0.2 mg/mL in 10 to 50 mM citrate buffer, pH 4 to 6 or 10 to 25 mM acetate buffer, pH 4 to 6. Syringe pumps are used to mix the ethanolic lipid solution with the mRNA aqueous solution at a ratio of about 1:5 to 1:3 (vol/vol) with total flow rates above 15 mL/min. The ethanol is then removed, and the external buffer replaced with PBS by dialysis. Finally, the lipid nanoparticles are filtered through a 0.2 µm pore sterile filter.
Studies are performed in 6-8-week-old CD-1/ICR mice (Charles River or Inotiv) according to guidelines established by an institutional animal care committee (ACC) and the Canadian Council on Animal Care (CCAC). Varying doses of mRNA-lipid nanoparticle are systemically administered by tail vein injection and animals euthanized at a specific time point (e.g., 24 hours) post-administration. The whole blood is collected, and the serum subsequentially separated by centrifuging the tubes of the whole blood at 2000×g for 10 minutes at 4° C. and stored at −80° C. until use for analysis.
For immunoglobulin G (IgG) ELISA (Life Diagnostics Human IgG ELISA kit), the serum samples are diluted at 100 to 20,000 folds with 1× diluent solution. 100 μL of diluted serum is dispensed into anti-human IgG coated 96-well plate in duplicate alongside human IgG standards and incubated in a plate shaker at 150 rpm at 25° C. for 45 minutes. The wells are washed 5 times with 1× wash solution using a plate washer (400 μL/well). 100 μL of HRP conjugate is added into each well and incubated in a plate shaker at the same condition above. The wells are washed 5 times again with 1× wash solution using a plate washer (400 μL/well). 100 μL of TMB reagent is added into each well and incubated in a plate shaker at the same condition above. The reaction is stopped by adding 100 μL of Stop solution to each well. The absorbance is read at 450 nm (A450) with a microplate reader. The amount of human IgG in mouse serum is determined by plotting A450 values for the assay standard against human IgG concentration.
Representative compounds of the disclosure shown in Table 2 were formulated using the following molar ratio: 50% cationic lipid/10% distearoylphosphatidylcholine (DSPC)/38.5% Cholesterol/1.5% PEG lipid 2-[2-(ω-methoxy(polyethyleneglycohooo)ethoxy]-N,N-ditetradecylacetamide) or 47.5% cationic lipid/10% DSPC/40.7% Cholesterol/1.8% PEG lipid. Relative activity was determined by measuring the amount of human IgG […]. The activity was compared at a dose of 1.0 or 0.3 mg mRNA/kg and expressed as ng luciferase/g liver measured 4 hours after administration, as described in Example 1 or as μg IgG/mL serum measured 24 hours after administration, as described in Example 2. Compound numbers in Table 2 refer to the compound numbers of Table 1.

SMILES	Serum IgG (μg/mL) @ 0.3 mg/kg [µg/mL]
CCCCCCCCC(CCCCCC)COC(=O)CCCCCN(CCCCCC)C(=O)CCCN(C)CCCC(=O)N(CCCCCC)CCCCCC(=O)OCC(CCCCCC)CCCCCCCC (centres unmarked) [Compound I-52, Bis(2-Hexyldecyl) 6,6′-((4,4′-(Methylazanediyl)Bis(Butanoyl))Bis(Hexylazanediyl))Dihexanoate]	13.0 ± 4.1
CCCCCCCCC(CCCCCC)COC(=O)CCCCCN(CCCCCC)C(=O)CCCCCN(C)CCCCCCCC(=O)N(CCCCCC)CCCCCCOC(=O)C(CCCCCC)CCCCCCCC (centres unmarked) [Compound I-46, 7,23,32-Trihexyl-16-Methyl-8,22,29-Trioxo-30-Oxa-7,16,23-Triazatetracontyl 2-Hexyldecanoate]	34.4 ± 11.3
CCCCCCCCC(CCCCCC)COC(=O)CCCCCN(CCCCCC)C(=O)CCCCCN(CCCCCC(=O)N(CCCCCC)CCCCCC(=O)OCC(CCCCCC)CCCCCCCC)CCCOC (centres unmarked) [Compound I-37, Bis(2-Hexyldecyl) 6,6′-((6,6′-((3-Methoxypropyl)Azanediyl)Bis(Hexanoyl))Bis(Hexylazanediyl))Dihexanoate]	63.0 ± 22.9
CCCCCCCCC(CCCCCC)C(=O)OCCCCCCN(CCCCCC)C(=O)CCCCCCCN(CCCCCCCC(=O)N(CCCCCC)CCCCCCOC(=O)C(CCCCCC)CCCCCCCC)CCN(C)C (centres unmarked) [Compound I-34, ((8,8′-((2-(Dimethylamino)Ethyl)Azanediyl)Bis(Octanoyl))Bis(Hexylazanediyl))Bis(Hexane-6,1-Diyl) Bis(2-Hexyldecanoate)]	5.0 ± 0.8
CCCCCCCCC(CCCCCC)COC(=O)CCCCCCCNC(=O)CCCCCCCCCN(C)CCCCCCCCCC(=O)NCCCCCCCC(=O)OCC(CCCCCC)CCCCCCCC (centres unmarked) [Compound I-2, Bis(2-Hexyldecyl) 8,8′-((10,10′-(Methylazanediyl)Bis(Decanoyl))Bis(Azanediyl))Dioctanoate]	70.7 ± 11.3
CCCCCCCCCCCCCCCCN(CCCN(C)CCCCCCCC(=O)N(CCCCCCCCCC)CCCCCC(=O)OCC(CCCC)CCCCCC)C(=O)CCCCC(=O)OCC(CCCCCC)CCCCCCCC (centres unmarked) [Compound I-38, 2-Hexyldecyl 6-((3-((8-((6-((2-Butyloctyl)Oxy)-6-Oxohexyl)(Decyl)Amino)-8-Oxooctyl)(Methyl)Amino)Propyl)(Hexadecyl)Amino)-6-Oxohexanoate]	21.9 ± 8.8
CCCCCCC(CCCC)COC(=O)CCCCCN(CCCCCC)C(=O)CCCCCCCN(C)CCCCCCCC(=O)N(CCCCCC)CCCCCC(=O)OCC(CCCC)CCCCCC (centres unmarked) [Compound I-33, Bis(2-Butyloctyl) 6,6′-((8,8′-(Methylazanediyl)Bis(Octanoyl))Bis(Hexylazanediyl))Dihexanoate]	75.8 ± 36.0
CCCCCCCCC(CCCCCC)COC(=O)CCCCCCCN(CCCCCC)C(=O)CCCCCCN(C)CCCCCCC(=O)N(CCCCCC)CCCCCCCC(=O)OCC(CCCCCC)CCCCCCCC (centres unmarked) [Compound I-16, Bis(2-Hexyldecyl) 8,8′-((7,7′-(Methylazanediyl)Bis(Heptanoyl))Bis(Hexylazanediyl))Dioctanoate]	37.2 ± 9.7
CCCCCCCCC(CCCCCC)COC(=O)CCCCCCCC(=O)N(CCCCCC)CCCCCCN(C)CCCCCCN(CCCCCC)C(=O)CCCCCCCC(=O)OCC(CCCCCC)CCCCCCCC (centres unmarked) [Compound I-5, Bis(2-Hexyldecyl) 9,9′-(((Methylazanediyl)Bis(Hexane-6,1-Diyl))Bis(Hexylazanediyl))Bis(9-Oxononanoate)]	57.5 ± 8.4
CCCCCCCCC(CCCCCC)COC(=O)CCCCCNC(=O)CCCCCCCN(C)CCCCCCCC(=O)N(CCCCCC)CCCCCC(=O)OCC(CCCCCC)CCCCCCCC (centres unmarked) [Compound I-11, 2-Hexyldecyl 6-(8-((8-(Hexyl(6-((2-Hexyldecyl)Oxy)-6-Oxohexyl)Amino)-8-Oxooctyl)(Methyl)Amino)Octanamido)Hexanoate]	35.6 ± 5.5
CCCCCCCCC(CCCCCC)COC(=O)CCCCN(CCCCCC)C(=O)CCCCCCCN(C)CCCCCCCC(=O)N(CCCCCC)CCCCC(=O)OCC(CCCCCC)CCCCCCCC (centres unmarked) [Compound I-15, Bis(2-Hexyldecyl) 5,5′-((8,8′-(Methylazanediyl)Bis(Octanoyl))Bis(Hexylazanediyl))Dipentanoate]	48.2 ± 12.7
CCCCCCCCC(CCCCCC)COC(=O)CCCCCN(CCCCCC)C(=O)CCCCCCN(C)CCCCCCC(=O)N(CCCCCC)CCCCCC(=O)OCC(CCCCCC)CCCCCCCC (centres unmarked) [Compound I-24, Bis(2-Hexyldecyl) 6,6′-((7,7′-(Methylazanediyl)Bis(Heptanoyl))Bis(Hexylazanediyl))Dihexanoate]	31.9 ± 6.4
CCCCCCCCC(CCCCCC)COC(=O)CCN(CCCCCC)C(=O)CCCCCCCN(C)CCCCCCCC(=O)N(CCCCCC)CCC(=O)OCC(CCCCCC)CCCCCCCC (centres unmarked) [Compound I-32, Bis(2-Hexyldecyl) 3,3′-((8,8′-(Methylazanediyl)Bis(Octanoyl))Bis(Hexylazanediyl))Dipropionate]	70.8 ± 12.3
CCCCCCCCC(CCCCCC)COC(=O)CCCCCN(C(=O)CCCCCCCN(C)CCCCCCCC(=O)N(CCCCCC(=O)OCC(CCCCCC)CCCCCCCC)C(C)C)C(C)C (centres unmarked) [Compound I-28, Bis(2-Hexyldecyl) 6,6′-((8,8′-(Methylazanediyl)Bis(Octanoyl))Bis(Isopropylazanediyl))Dihexanoate]	13.2 ± 4.3
CCCCCCCCC(CCCCCC)COC(=O)CCCCCN(CCCCCCCCN(C)CCCCCCCCN(CCCCCC(=O)OCC(CCCCCC)CCCCCCCC)C(=O)CCCCC)C(=O)CCCCC (centres unmarked) [Compound I-43, Bis(2-Hexyldecyl) 6,6′-(((Methylazanediyl)Bis(Octane-8,1-Diyl))Bis(Hexanoylazanediyl))Dihexanoate]	49.9 ± 14.8
CCCCCCCCC(CCCCCC)C(=O)OCCCCCCCCC(=O)N(CCCCCC)CCCCCCN(C)CCCCCCN(CCCCCC)C(=O)CCCCCCCCOC(=O)C(CCCCCC)CCCCCCCC (centres unmarked) [Compound I-13, (((methylazanediyl)bis(hexane-6,1-diyl))bis(hexylazanediyl))bis(9-oxononane-9,1-diyl) bis(2-hexyldecanoate)]	11.3 ± 4.7
CCCCCCCCC(CCCCCC)COC(=O)CCCCCN(CCCCCC)C(=O)CCCCCCCN(CCCCCCCC(=O)N(CCCCCC)CCCCCC(=O)OCC(CCCCCC)CCCCCCCC)[C@H]1CC[C@@H](O)CC1 (stereo partly drawn) [Compound I-12, Rel-Bis(2-Hexyldecyl) 6,6′-((8,8′-(((1R,4R)-4-Hydroxycyclohexyl)Azanediyl)Bis(Octanoyl))Bis(Hexylazanediyl))Dihexanoate]	29.6 ± 12.7
CCCCCCCCC(CCCCCC)COC(=O)CCCCCCCN(CCCCCC)C(=O)CCCCN(C)CCCCC(=O)N(CCCCCC)CCCCCCCC(=O)OCC(CCCCCC)CCCCCCCC (centres unmarked) [Compound I-18, Bis(2-Hexyldecyl) 8,8′-((5,5′-(Methylazanediyl)Bis(Pentanoyl))Bis(Hexylazanediyl))Dioctanoate]	8.9 ± 4.9
CCCCCCCCC(CCCCCC)COC(=O)CCCCCN(CCCCCCCC)C(=O)CCCCCCCN(C)CCCCCCCC(=O)N(CCCCCCCC)CCCCCC(=O)OCC(CCCCCC)CCCCCCCC (centres unmarked) [Compound I-41, Bis(2-Hexyldecyl) 6,6′-((8,8′-(Methylazanediyl)Bis(Octanoyl))Bis(Octylazanediyl))Dihexanoate]	19.2 ± 6.8
CCCCCCCCC(CCCCCC)COC(=O)CCCCCN(CCCCCC)C(=O)CCCCCN(C)CCCCCC(=O)N(CCCCCC)CCCCCC(=O)OCC(CCCCCC)CCCCCCCC (centres unmarked) [Compound I-27, Bis(2-Hexyldecyl) 6,6′-((6,6′-(Methylazanediyl)Bis(Hexanoyl))Bis(Hexylazanediyl))Dihexanoate]	15.6 ± 4.7

Same assay, conditions: LNP with the cationic lipid, 1.0 mg mRNA/kg, tail vein injection, μg IgG/mL serum 24 hours after administration

SMILES	Serum IgG (μg/mL) @ 1.0 mg/kg [µg/mL]
CCCCCCCCC(CCCCCC)COC(=O)CCCCCCCNC(=O)CCCCCCCCCN(C)CCCCCCCCCC(=O)NCCCCCCCC(=O)OCC(CCCCCC)CCCCCCCC (centres unmarked) [Compound I-2, Bis(2-Hexyldecyl) 8,8′-((10,10′-(Methylazanediyl)Bis(Decanoyl))Bis(Azanediyl))Dioctanoate]	369.6 ± 59.4
CCCCCCCCC(CCCCCC)COC(=O)CCCCN(CCCCCC)C(=O)CCCCCCCN(C)CCCCCCCC(=O)N(CCCCCC)CCCCC(=O)OCC(CCCCCC)CCCCCCCC (centres unmarked) [Compound I-15, Bis(2-Hexyldecyl) 5,5′-((8,8′-(Methylazanediyl)Bis(Octanoyl))Bis(Hexylazanediyl))Dipentanoate]	135.0 ± 37.2
CCCCCCCCC(CCCCCC)COC(=O)CCCCCCCN(CCCCCC)C(=O)CCCCN(C)CCCCC(=O)N(CCCCCC)CCCCCCCC(=O)OCC(CCCCCC)CCCCCCCC (centres unmarked) [Compound I-18, Bis(2-Hexyldecyl) 8,8′-((5,5′-(Methylazanediyl)Bis(Pentanoyl))Bis(Hexylazanediyl))Dioctanoate]	32.4 ± 4.6
